According to US20090324515A1, “ANTIMICROBIAL FLAVOURING COMPOSITION” (priority 2006, published 2009):
≈ marks a conversion by molar mass, not a printed value.

What was measured:
[1] = tested on: Streptococcus mutans DSM 6178; experiment: Determination of minimum inhibitory concentration (microdilution assay); conditions: for MIC: Streptococcus mutans, DSM6178, 24 h, read-out: MIC Streptococcus mutans
[2] = tested on: Prevotella melaninogenica; experiment: as above; conditions: 72 h, read-out: MIC Prevotella melaninogenica
[3] = tested on: Fusobacterium nucleatum DSM 20482; experiment: as above; conditions: for MIC: Fusobacterium nucleatum, DSM20482, 72 h, read-out: MIC Fusobacterium nucleatum
[4] = tested on: Porphyromonas gingivalis DSM 20709; experiment: as above; conditions: for MIC: Porphyromonas gingivalis, DSM20709, 72 h, read-out: MIC Porphyromonas gingivalis
[5] = tested on: Mycobacterium tuberculosis subsp. tuberculosis; conditions: Amicbase; cited from earlier work
Staphylococcus aureus = conditions: Amicbase; cited from earlier work
Streptococcus sp. = conditions: Amicbase; cited from earlier work
Eschericia coli = conditions: Amicbase; cited from earlier work
Proteus mirabilis = conditions: Amicbase; cited from earlier work
Pseudomonas aeruginosa = conditions: Amicbase; cited from earlier work
[6] = 72 h, 37° C., anaerobic, without CO2, average of 3 MIC values

Row | SMILES | MIC [1] [µg/mL] | MIC [3] [µg/mL] | MIC [4] [µg/mL] | further results
1 | CCCCC(C)C(=O)O (centres unmarked) [2-Methylhexanoic acid, 2-methylhexanoic acid] | ≤ 150 | 500 (≈ 3.84 mM) | 1300 (≈ 9.99 mM) | MIC [2]: 1500 µg/mL (≈ 11.5 mM)
2 | Cc1ccc(O)cc1C [3,4-dimethylphenol] | ≤ 150 | 500 (≈ 4.09 mM) | ≤ 150 | MIC [5]: 20 ppm; MIC (Staphylococcus aureus): 2000 ppm; MIC (Streptococcus sp.): 2000 ppm; MIC (Eschericia coli): 4000 ppm; MIC (Proteus mirabilis): 4000 ppm; MIC (Pseudomonas aeruginosa): 4000 ppm; MIC [2]: 590 µg/mL (≈ 4.83 mM)
3 | CC(=O)C1=C(C)[C@@H]2C[C@@]3(C1)[C@H](C)CC[C@H]3C2(C)C [Acetyl cedrene, acetyl cedrene] | – | – | – | MIC Streptococcus mutans ([1]; 24 h, 37° C., anaerobic, with CO2, average of 3 MIC values): 250 ppm; MIC Fusobacterium nucleatum [3, 6]: 500 ppm; MIC Porphyromonas gingivalis [4, 6]: 150 or less ppm
4 | CC1=CCC(CCC(C)CO)C1(C)C (centres unmarked) [Brahmanol, 2-methyl-4-(2,2,3-trimethyl-3-cyclopenten-1-yl)-1-butanol] | 250 (≈ 1.27 mM) | 250 (≈ 1.27 mM) | ≤ 150 | –
5 | O=C/C=C/c1ccccc1 [Cinnamic aldehyde, cinnamic aldehyde] | 250 (≈ 1.89 mM) | 500 (≈ 3.78 mM) | ≤ 150 | –
6 | O=C1CCCCCCCCCCCCCC1 [Cyclopenta-decanone, cyclopentadecanone] | 1000 (≈ 4.46 mM) | 1000 (≈ 4.46 mM) | ≤ 150 | –
7 | COC(=O)c1c(C)cc(O)c(C)c1O [Methylatrarate, methyl-2,4-dihydroxy-3,6-dimethyl-benzoate] | 1000 (≈ 5.1 mM) | ≤ 150 | ≤ 150 | –
